Results taken from US10335482B2, “Method of inducing an anti-HIV-1 immune response comprising administering a C5/TM-GP41 peptide dimer” (priority 2012, dated 2019).
Bridge positions count the residues as written; N and C are the ends. Ends that are not written are not given here. I, II: the chains in the order shown.

Key:
[1] = system: Anti-C5/gp41 sera from BI400-B immunized rabbits; experiment: Competitive ELISA for rabbit sera after immunization with BI400-B; type: binding; conditions: antigen 10-1000 μM preincubated with rabbit serum; FIG. 3
Method: 50-100 μl of a mixture of BI400-015 and -201 (pre-incubated in Coating buffer—0.05M Na2CO3 pH9.6; denoted CB—in cold at 16 μg/ml for each peptide 1-3 days prior to coating) or just CB (background control) was used for coating wells in microtiter plates at 4° C. overnight. Plates were then washed 3× with washing buffer (PBS+1% v/v Triton-X100; denoted WB), followed by 2 h blocking at room temperature (RT) with 200 μl/well of blocking buffer (PBS+1% w/v BSA). Plates were then washed 3× with WB, followed by 1 h incubation at 37° C. with 60-100 μl/well of added rabbit serum samples (diluted 1:10-1:250 final concentration) preincubated together (4° C. overnight) with serial dilutions (ranging from 10-1000 μM final concentration) of 400-SEQ.B, BI400-015, BI400-201, BI400-204d, recombinant gp41 (Shin-Won Scientific, SWO 102 gp41), BI301-23 (irrelevant protein; control), no peptide (i.e. PBS; control), LTNP-sera pools (diluted 1:10 final concentration), or Blood donor sera-pools (diluted 1:10 final concentration; control). Plates were then washed 6× with WB, followed by 1 h incubation at RT with 70 μl/well of Alkaline Phosphatase-conjugated Goat-anti-Rabbit-Ig (6 μg/ml; Dako D0487). […] Plates were finally quenched by adding 100 μl/well of Quench solution (0.1M TRIS+0.1M EDTA+0.5M NaOH+0.01% w/v NaN3; pH14), followed by ELISA reader (ASYS UVM 340) at 550 nm.

HIV specific T-cells = conditions: IMiD present during stimulation with dendritic cells presenting Gag- or Nef-specific peptides; cited from earlier work
[2] = Toxicity of the dipeptide in mice; type: in vivo, NMFI female mice; conditions: injection, 100 μg per kg bodyweight, 4 mg/ml in 0.9% NaCl
Method: The dipeptide of Example 20 was diluted in 0.9% NaCl to a test solution concentration of 4 mg/ml. The peptide was administered by injection to NMFI female mice in a dose of 100 μg per kg bodyweight.

Compound	inhibition of antibody binding to C5/gp41 (015/201) by antigen [1]	function of the T-cells (HIV specific T-cells)	other results
201: gp41 peptide (DRPEGIEEEGGERDR) [compound 201]	could be inhibited	–	–
Nc1cccc2c1CN(C1CCC(=O)NC1=O)C2=O (centres unmarked) [Lenalidomide]	–	a number of improvements in the function of the T-cells	–
Nc1cccc2c1C(=O)N(C1CCC(=O)NC1=O)C2=O (centres unmarked) [pomalidomide]	–	a number of improvements in the function of the T-cells	–
GGAIVNGSLADDDIVI [204d, peptide derived from C2]	could be inhibited	–	–
I: WIIPGLNPLVGGGKLYSPTSILCG-NH2 / II: KALGPGATLQTPWTACQGVG-NH2 (disulfide I:23-II:16) [Example 20]	–	–	toxicological effects [2]: No toxicological effects were observed
